Where two headings read alike, the source gives them in different places.
What was measured:
CB1 receptor = CB1 receptor (Rattus norvegicus, UniProt P20272); experiment: biochemical; assay type: binding; settings: for Ki: 1 nM [3H] CP 55,940, rat whole brain P2 membranes, 30° C. for 1 hr
Description: (§1) Male ICR mice (25-32 g), purchased from Harlan (Dublin, Va.), were housed in groups of five. All animals were kept in a temperature-controlled (20-22° C.) environment with a 12-hour light-dark cycle (lights on at 7 a.m.). Separate mice were used for testing each drug dose in the in vivo behavioral procedures. The mice were maintained on a […] light: dark cycle, and received food and water ad libitum. Brain tissue for binding studies was obtained from male Sprague-Dawley rats (150-200 g) purchased from Harlan Laboratories (Dublin, Va.).
All assays, as described briefly below, were performed in triplicate, and the results represent the combined data from three to six individual experiments. Following decapitation and rapid removal of the brain, whole brain was homogenized and centrifuged. The resulting pellet was termed P1. The supernatant was saved and combined with the two subsequent supernatants obtained from washing of the P1 pellet. The combined supernatant fractions were centrifuged, resulting in the P2 pellet. After further incubation and centrifuging, this pellet was resuspended in assay buffer to a protein concentration of approximately 2 mg/ml. The membrane preparation was quickly frozen in a bath solution of dry ice and 2-methylbutane (Sigma Chemical Co., St. Louis, Mo.), then stored at −80° C. for no more than 2 weeks. […] Binding was initiated by the addition of 150 μg of P2 membrane to test tubes containing 1 nM of [3H] […] Following incubation at 30° C. for 1 hr, binding was terminated by addition of ice-cold buffer and vacuum filtration through pretreated filters in a 12-well sampling manifold (Millipore, Bedford, Mass.). After washing, filters were placed into plastic scintillation vials (Packard, Downer Grove, Ill.) and shaken. The quantity of radioactivity present was determined by liquid scintillation spectrometry.

mice [1] = experiment: Spontaneous (locomotor) activity in mice, compound alone (agonism test); assay type: in vivo; settings: for Max stim of spontaneous locomotor activity, Compound Alone (in words): at the dose(s) [mg/kg] given in parentheses in the cell; for change in vivo at 1 mg/kg: at 1 mg/kg i.v.
Description: as §1
(§2) Measurement of spontaneous activity in mice occurred in standard activity chambers interfaced with a Digiscan Animal Activity Monitor (Omnitech Electronics, Inc., Columbus, Ohio). A standard tail-flick apparatus (described by Dewey et al., 1970) and a digital thermometer (Fisher Scientific, Pittsburgh, Pa.) were used to measure antinociception and rectal temperature, respectively.
(§3) All drugs were administered to the mice intravenously (i.v.) in the tail vein at a volume of 0.1 ml/10 g.
(§4) Maximum latency of 10 sec was used.

mice [2] = experiment: Tail-flick antinociception in mice, compound alone (agonism test); assay type: in vivo; settings: for ED50: Mus musculus, iv
Description: as §1, §2, §3, §4

mice [3] = experiment: Rectal temperature (hypothermia) in mice, compound alone (agonism test); assay type: in vivo; settings: for ED50: Mus musculus, iv
Description: as §1, §2, §3, §4

mice [4] = experiment: Spontaneous activity in mice, compound in combination with 3 mg/kg Δ^9-THC (antagonism test); assay type: in vivo; settings: for SA: maximum % antagonism of 3 mg/kg Δ^9-THC: analog 10 min before Δ^9-THC; for Max stim of spontaneous locomotor activity, Compound with 3 mg/kg Δ^9-THC (in words): at the dose(s) [mg/kg] given in parentheses in the cell
Description: as §1, §2, §3, §4

mice [5] = experiment: Tail-flick antinociception in mice, compound in combination with 3 mg/kg Δ^9-THC (antagonism test); assay type: in vivo; settings: for % MPE: maximum % antagonism of 3 mg/kg Δ^9-THC: at 10 mg/kg i.v.
Description: as §1, §2, §3, §4

mice [6] = experiment: Rectal temperature in mice, compound in combination with 3 mg/kg Δ^9-THC (antagonism test); assay type: in vivo
Description: as §1, §2, §3, §4

[7] = Mus musculus, iv, at 10 mg/kg i.v., read-out: Max % inhibit of spontaneous locomotor activity, Compound Alone
[8] = Mus musculus, iv, mice, i.v., read-out: SA: > dose, 50% activity not achieved at this highest dose tested
[9] = read-out: TF: > dose, 50% activity not achieved at this highest dose tested
[10] = read-out: RT: > dose, 50% activity not achieved at this highest dose tested
[11] = Mus musculus, iv, read-out: Max stim of spontaneous locomotor activity, Compound Alone

Chain of CB1 receptor (P20272 whole entry): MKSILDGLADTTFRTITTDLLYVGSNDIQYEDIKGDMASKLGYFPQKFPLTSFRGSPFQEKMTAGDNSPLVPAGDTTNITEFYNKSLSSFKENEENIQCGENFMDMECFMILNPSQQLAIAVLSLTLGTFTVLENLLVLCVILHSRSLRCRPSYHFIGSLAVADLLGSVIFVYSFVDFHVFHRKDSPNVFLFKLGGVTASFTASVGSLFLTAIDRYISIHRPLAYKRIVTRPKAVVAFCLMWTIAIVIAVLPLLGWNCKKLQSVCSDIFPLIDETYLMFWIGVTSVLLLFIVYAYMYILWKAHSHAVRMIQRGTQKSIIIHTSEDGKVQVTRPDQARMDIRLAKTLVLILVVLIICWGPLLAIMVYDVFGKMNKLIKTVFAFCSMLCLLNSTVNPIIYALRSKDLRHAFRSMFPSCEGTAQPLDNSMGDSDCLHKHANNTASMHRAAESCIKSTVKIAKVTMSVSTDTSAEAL

Compound | Ki (CB1 receptor; read-out: Ki) [nM] | inhibition in vivo at 10 mg/kg (mice [1]; [7]) [%] | ED50 (mice [1]; [8]) [mg/kg] | Max stim of spontaneous locomotor activity, Compound Alone (in words) (mice [1]) | ED50 (mice [2]; [9]) [mg/kg] | ED50 (mice [3]; [10]) [mg/kg] | Max % inhibit of spontaneous locomotor activity, Compound with 3 mg/kg Δ^9-THC (mice [4]; at 10 mg/kg i.v.) | Max stim of spontaneous locomotor activity, Compound with 3 mg/kg Δ^9-THC (in words) (mice [4]) | % MPE: maximum % antagonism of 3 mg/kg Δ^9-THC (mice [5]) | Ki (CB1 receptor; Ki (nM)) [nM] | change in vivo at 1 mg/kg (mice [1]; [11]) [%] | Max % inhibit of spontaneous locomotor activity, Compound with 3 mg/kg Δ^9-THC (mice [4]; at 0.3 mg/kg i.v.) | SA: maximum % antagonism of 3 mg/kg Δ^9-THC (mice [4]; at 1 mg/kg i.v.) | further results
CCCCCc1ccc(-n2nc(C(=O)NN3CCCCC3)c(C)c2-c2ccc(Cl)cc2)cc1 [Compound O-1255] | 433 ± 103 | 20 | > 30 | None (3, 10 & 30) | > 30 | > 30 | 65% (10) | None (10) | 13% (10) | – | – | – | – | CB1 binding affinity, fold less than the n-butyl compound (CB1 receptor; compared to O-1254): ~2 fold; SA: maximum % antagonism of 3 mg/kg Δ^9-THC (mice [4]; at 10 mg/kg i.v.): 0% (10); RT: maximum % antagonism of 3 mg/kg Δ^9-THC (mice [6]; at 10 mg/kg i.v.): 14% (10)
CCCCCc1ccc(-c2cc(C(=O)NN3CCCCC3)nn2-c2ccc(Cl)cc2Cl)cc1 [Compound O-1710] | – | 42 | > 30 | – | > 30 | > 30 | 82% (10) | None (0.3, 1, 3, & 10) | 62% (10) | 27 ± 0.86 | 4 | – | – | CB1 binding affinity, fold decrease by hydrogen substitution at position 4 (CB1 receptor; compared to the p-pentylphenyl analog with 4-methyl): 12 fold; SA: maximum % antagonism of 3 mg/kg Δ^9-THC (mice [4]; at 3 mg/kg i.v.): 50% (3); RT: maximum % antagonism of 3 mg/kg Δ^9-THC (mice [6]; at 1 mg/kg i.v.): 51% (1)
CCCCCc1ccc(-c2c(C)c(C(=O)NN3CCCCC3)nn2-c2ccc(Cl)cc2Cl)cc1 [Compound O-1302, N-(Piperidin-1-yl)-1-(2,4-dichlorophenyl)-4-methyl-5-(4-pentylphenyl)-1H-pyrazole-3-carboxamide] | – | – | > 30 | – | > 30 | > 30 | – | – | – | 2.1 ± 0.08 | – | 74% (0.3) | 91% (1) | CB1 receptor binding affinity, fold greater than SR 141716A (CB1 receptor; compared to SR 141716A): approximately 3 fold; inhibition in vivo at 3 mg/kg (mice [1]; Mus musculus, iv, at 3 mg/kg i.v., read-out: Max % inhibit of spontaneous locomotor activity, Compound Alone): 26%; change in vivo at 10 mg/kg (mice [1]; Mus musculus, iv, at 10 mg/kg i.v., read-out: Max stim of spontaneous locomotor activity, Compound Alone): 2%; Max stim of spontaneous locomotor activity, Compound with 3 mg/kg Δ^9-THC (mice [4]; at 30 mg/kg i.v.): 107% (30)
Cc1c(COCc2cccc3ccccc23)nn(-c2ccc(Cl)cc2Cl)c1-c1ccc(Cl)cc1 [Compound O-852] | – | – | > 10 | – | > 10 | > 10 | – | – | – | 78 ± 10 | 52 | – | – | stimulation of locomotor activity (mice [1]; compound alone, dose not given (see Table 5)): 52%; Max % inhibit of spontaneous locomotor activity, Compound Alone (in words: stimulation instead of inhibition) (mice [1]; doses in mg/kg): stim at 1, 3 & 10
Cc1c(C(=O)NCCF)nn(-c2ccc(Cl)cc2Cl)c1-c1ccc(Cl)cc1 [Compound O-1398, N-(2-fluoroethyl)-5-(4-chlorophenyl)-1-(2,4-dichlorophenyl)-4-methyl-1H-pyrazol-3-carboxamide] | 852 ± 175 | 97 | – | None (3, 10 & 30) | – | – | – | – | – | – | – | – | – | CB1 binding affinity, fold decrease on shortening the n-pentyl amide (CB1 receptor; compared to O-1269): 27 fold; CB1 binding affinity, further fold reduction (CB1 receptor; compared to the n-propyl compound O-1399): 5 fold; ED50 (mice [1]; Mus musculus, iv, mice, i.v., 95% confidence limits in parentheses, * = estimated ED50, dose-effect curve not linear, read-out: SA (suppression of spontaneous activity) ED50): 7 µmol/kg; ED50 (mice [2]; 20 min, i.v., 20 min post-injection, 95% confidence limits in parentheses, * = estimated ED50, dose-effect curve not linear, read-out: TF (tail flick, % MPE) ED50): 13 µmol/kg; ED50 (mice [3]; 0.5 h, i.v., 30 min post-injection, 95% confidence limits in parentheses, read-out: RT (rectal temperature) ED50): 8 µmol/kg
N-(N-Piperdyl)-3-(2,4-dichlrophenyl)-4-(4′-(1′-methylpentyl)phenyl)-5-methylpyrazole carboxamide [Compound O-1690] | 2.6 ± 0.13 | – | – | – | – | – | – | – | – | – | – | 88% (0.3) | 65% (1) | Max % inhibit of spontaneous locomotor activity, Compound Alone (mice [1]; at 10 mg/kg i.v.): 24% (10); Max stim of spontaneous locomotor activity, Compound Alone (mice [1]; at 30 mg/kg i.v.): 18% (30); SA: > dose, 50% activity not achieved at this highest dose tested (mice [1]; mice, i.v.): >30 mg/kg; TF: > dose, 50% activity not achieved at this highest dose tested (mice [2]; i.v.): >30 mg/kg; RT: > dose, 50% activity not achieved at this highest dose tested (mice [3]; i.v.): >30 mg/kg; Max stim of spontaneous locomotor activity, Compound with 3 mg/kg Δ^9-THC (mice [4]; at 10 mg/kg i.v.): 39% (10); antagonist potency, fold increase for antinociception (mice [5]; compared to O-1302): approximately 3 fold; antagonist potency, fold increase for hypothermia (mice [6]; compared to O-1302): approximately 3 fold

— patent US6509367B1 (priority 2001, dated 2003)
